Reference: US20240018133A1, “MODULATORS OF THE INTEGRATED STRESS PATHWAY” (Calico Life Sciences LLC, priority 2019, published 2024)

Tested on: ATF4 luciferase reporter (human full-length ATF4 5'-UTR fused to firefly luciferase) in HEK293T cells
Assay: ATF4-Luc assay (in vitro model of VWMD): HEK293T cells carrying ATF4 luciferase reporter, tunicamycin-treated
Assay type: cell-based
Details: 1 μg/mL tunicamycin, 7 hours, One Glo luminescence
Outline: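 Compound at 200 nM and tunicamycin at 1 μg/mL were given together for 7 h to HEK293T cells stably transduced with an ATF4 5′-UTR-driven firefly luciferase reporter. Read-out by luminescence, reported as EC50.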

O=C(NC12CC(NC(=O)C3CC(O)c4cc(Cl)ccc4O3)(C1)C2)c1cnc(C(F)F)cn1 (stereo not drawn) [Compound 213, N-{3-[(6-chloro-4-hydroxy-3,4-dihydro-2H-1-benzopyran-2-carbonyl)amino]bicyclo[1.1.1]pentan-1-yl}-5-(difluoromethyl)pyrazine-2-carboxamide] showed an EC50 (Homo sapiens, HEK-293T) of 0.01 to 0.05 µM.

O=C(NC12CCC(NC(=O)[C@H]3C[C@@H](O)c4cc(Cl)ccc4O3)(CC1)CC2)c1ccc(OC(F)(F)F)cn1 [Compound 361, N-(4-{[(2R,4R)-6-chloro-4-hydroxy-3,4-dihydro-2H-1-benzopyran-2-carbonyl]amino}bicyclo[2.2.2]octan-1-yl)-5-(trifluoromethoxy)pyridine-2-carboxamide] was tested, and the EC50 (Homo sapiens, HEK-293T) was 0.05 to 0.25 µM.

With O=C(COc1ccc(Cl)c(F)c1)NC12CC(NC(=O)C3CNc4cc(Cl)ccc4O3)(C1)C2 (single isomer, unassigned) [Compound 103] the EC50 was less than 0.01 µM.

O=C(COc1ccc(Cl)c(F)c1)NC12CC(NC(=O)C3CNc4cc(Cl)ccc4O3)(C1)C2 (stereo not drawn) [Compound 113, 6-chloro-N-{3-[2-(4-chloro-3-fluorophenoxy)acetamido]bicyclo[1.1.1]pentan-1-yl}-3,4-dihydro-2H-1,4-benzoxazine-2-carboxamide] was tested, and the EC50 (Homo sapiens, HEK-293T) was less than 0.01 µM.

For O=C(COc1ccc(Cl)c(F)c1)NC12CC(NC(=O)C3CC(O)c4cc(F)c(Cl)cc4O3)(C1)C2 (stereo not drawn) [Compound 246, 7-chloro-N-{3-[2-(4-chloro-3-fluorophenoxy)acetamido]bicyclo[1.1.1]pentan-1-yl}-6-fluoro-4-hydroxy-3,4-dihydro-2H-1-benzopyran-2-carboxamide], the EC50 (Homo sapiens, HEK-293T) was less than 0.01 µM.

Molecule CN(C(=O)c1cc(=O)c2cc(Cl)ccc2o1)C12CC(NC(=O)COc3ccc(Cl)c(F)c3)(C1)C2 [Compound 324, 6-chloro-N-{3-[2-(4-chloro-3-fluorophenoxy)acetamido]bicyclo[1.1.1]pentan-1-yl}-N-methyl-4-oxo-4H-1-benzopyran-2-carboxamide] has an EC50 (Homo sapiens, HEK-293T) of 0.25 to 0.5 µM.

O=C(NC12CC(NC(=O)[C@H]3C[C@@H](O)c4cc(Cl)ccc4O3)(C1)C2)c1ccccn1 [Compound 386, N-(3-{[(2R,4R)-6-chloro-4-hydroxy-3,4-dihydro-2H-1-benzopyran-2-carbonyl]amino}bicyclo[1.1.1]pentan-1-yl)pyridine-2-carboxamide] showed an EC50 (Homo sapiens, HEK-293T) of 0.05 to 0.25 µM.

O=C(NC12CCC(NC(=O)[C@H]3C[C@@H](O)c4cc(Cl)ccc4O3)(CC1)[C@@H](O)C2)c1cc(C(F)F)no1 (single isomer, unassigned) [Compound 215] gave an EC50 (Homo sapiens, HEK-293T) of 0.01 to 0.05 µM.

With O=C(COc1ccc(Cl)c(F)c1)NC12CC(NC(=O)[C@@H]3C[C@H](O)c4ccccc4O3)(C1)C2 [Compound 270, (2S,4S)—N-{3-[2-(4-chloro-3-fluorophenoxy)acetamido]bicyclo[1.1.1]pentan-1-yl}-4-hydroxy-3,4-dihydro-2H-1-benzopyran-2-carboxamide] the EC50 (Homo sapiens, HEK-293T) was 0.05 to 0.25 µM.

Molecule COc1ccc2c(n1)[C@H](O)C[C@H](C(=O)NC13CC(NC(=O)COc4ccc(Cl)c(F)c4)(C1)C3)O2 (racemic) [Compound 334, rac-(2R,4R)—N-{3-[2-(4-chloro-3-fluorophenoxy)acetamido]bicyclo[1.1.1]pentan-1-yl}-4-hydroxy-6-methoxy-3,4-dihydro-2H-pyrano[3,2-b]pyridine-2-carboxamide] has an EC50 (Homo sapiens, HEK-293T) of 0.05 to 0.25 µM.

COC(=O)CN1C[C@@H](C(=O)NC23CC(NC(=O)COc4ccc(Cl)c(F)c4)(C2)C3)Oc2ccc(Cl)cc21 [Compound 211, methyl [(2S)-6-chloro-2-({3-[2-(4-chloro-3-fluorophenoxy)acetamido]bicyclo[1.1.1]pentan-1-yl}carbamoyl)-2,3-dihydro-4H-1,4-benzoxazin-4-yl]acetate] was tested, and the EC50 (Homo sapiens, HEK-293T) was 0.01 to 0.05 µM.

Molecule O=C(COc1ccc(Cl)c(F)c1)NC12CCC(NC(=O)C3CC(=O)c4cc(Cl)ccc4O3)(C1)C2 (stereo not drawn) [Compound 310, 6-chloro-N-{4-[2-(4-chloro-3-fluorophenoxy)acetamido]bicyclo[2.1.1]hexan-1-yl}-4-oxo-3,4-dihydro-2H-1-benzopyran-2-carboxamide] has an EC50 (Homo sapiens, HEK-293T) of 0.01 to 0.05 µM.
